Results on one compound are retold here after patent publication US20240049707A1, “PESTICIDE COMPOSITIONS OF LICOCHALCONE C” (METABOLIC INSIGHTS LTD., priority 2020, published 2024).

One experiment relates to Pseudomonas syringae. Put plainly: Microplate based screening of bioactivity against Pseudomonas syringae. The class given is cell-based. The settings on record: 10 μl of 250 ppm solution + 40 μl inoculum, activity grade x repeats x days of activity/168 x 100. The procedure:
Pseudomonas Suspension Preparation: • 1) Grow Pseudomonas on LBA plates at 28° C. for 2 days to get a single colony • 2) Transfer a single colony using a sterile toothpick into a 50 ml sterile tube containing 5 ml LB and grow for 24 at 28° C. and 150 RPM • 3) Chill the tube in the fridge for 1 h • 4) Add 7.5 ml of fridge cold, sterile, glycerol solution to the tube—to get 60% glycerol solution • 5) Mix well but gently to get perfect mixing—use vortex at 1000 RPM • 6) Aliquot 100 μl of bacteria suspension in 60% glycerol into 1.5 ml tubes—each aliquot should be enough for screening of 10 microplates • 7) Store the bacteria suspension in 60% glycerol at −20° C.
Pseudomonas Suspension Preparation for Bioactivity Screening Experiment: • 1) Take 1.5 ml tube with 100 μl frozen Pseudomonas suspension from the freezer and thaw it on ice • 2) Prepare in the hood 50 ml tubes with 40 ml fridge cold LB • 3) Mix 40 μl of bacteria suspension with 40 ml fridge cold LB in a 50 ml tube. This amount is enough for activity screening of 10 microplates • 4) Use this suspension for bioactivity screening experiments […]

For another experiment, the system named is Rhizoctonia solani. Put plainly: Microplate based assay of bioactivity against Rhizoctonia solani. It counts as cell-based. The following applies: 10 μl of 250 ppm solution + 40 μl inoculum, activity grade x repeats x days of activity/252 x 100. As for the experimental part:
Diluted in DMSO Licochalcone C was added to microplate wells and mixed with 50 μl of hyphae suspension and growth of the fungus, starting from blended hyphae, was monitored by plate reader and visual inspection. Inoculum Preparation of Rhizoctonia solani Hyphae: The concentration of the suspension should be 4×10^4 CFU/ml (diluted 10-fold concentration should be 4000 CFU/ml). Dilute the inoculum stock 1:20 in PDBC—1 ml in 20 ml, or calculate the dilution needed, to prepare final concentration of 2000 CFU/ml. The amount in each well should be about 100 CFU. […] Screening of Plates: • 1) Screen plate at […]: 3d, 7d, 14d and 21d following the assay start • 2) Calculate the difference of absorbance between each screen and the read at zero time • 3) Calculate the percentage of growth inhibition of each well at each time point. […]

For the compound `COc1c(/C=C/C(=O)c2ccc(O)cc2)ccc(O)c1CC=C(C)C` [Licochalcone C, (E)-3-[4-hydroxy-2-methoxy-3-(3-methylbut-2-enyl)phenyl]-1-(4-hydroxyphenyl)prop-2-en-1-one], the “Relative Activity value (%)” value in the experiment with Pseudomonas syringae is reported as 50%; with Rhizoctonia solani, 100%.
